Consider 19 compounds from US20180057507A1, “INHIBITORS OF DUAL LEUCINE ZIPPER (DLK) KINASE FOR THE TREATMENT OF DISEASE” (Board of Regents, The University of Texas System, priority 2016, published 2018).

In general, Kd refers to the constant that tells how readily two partners part at equilibrium. A lower Kd goes with tighter binding. As a reminder, the IC50 is the concentration that gives 50% inhibition. Read a low IC50 as inhibition by little substance.

The target in assay [1] is T1, human DLK (Homo sapiens, UniProt Q12852).
T1 sequence (Q12852 1-859): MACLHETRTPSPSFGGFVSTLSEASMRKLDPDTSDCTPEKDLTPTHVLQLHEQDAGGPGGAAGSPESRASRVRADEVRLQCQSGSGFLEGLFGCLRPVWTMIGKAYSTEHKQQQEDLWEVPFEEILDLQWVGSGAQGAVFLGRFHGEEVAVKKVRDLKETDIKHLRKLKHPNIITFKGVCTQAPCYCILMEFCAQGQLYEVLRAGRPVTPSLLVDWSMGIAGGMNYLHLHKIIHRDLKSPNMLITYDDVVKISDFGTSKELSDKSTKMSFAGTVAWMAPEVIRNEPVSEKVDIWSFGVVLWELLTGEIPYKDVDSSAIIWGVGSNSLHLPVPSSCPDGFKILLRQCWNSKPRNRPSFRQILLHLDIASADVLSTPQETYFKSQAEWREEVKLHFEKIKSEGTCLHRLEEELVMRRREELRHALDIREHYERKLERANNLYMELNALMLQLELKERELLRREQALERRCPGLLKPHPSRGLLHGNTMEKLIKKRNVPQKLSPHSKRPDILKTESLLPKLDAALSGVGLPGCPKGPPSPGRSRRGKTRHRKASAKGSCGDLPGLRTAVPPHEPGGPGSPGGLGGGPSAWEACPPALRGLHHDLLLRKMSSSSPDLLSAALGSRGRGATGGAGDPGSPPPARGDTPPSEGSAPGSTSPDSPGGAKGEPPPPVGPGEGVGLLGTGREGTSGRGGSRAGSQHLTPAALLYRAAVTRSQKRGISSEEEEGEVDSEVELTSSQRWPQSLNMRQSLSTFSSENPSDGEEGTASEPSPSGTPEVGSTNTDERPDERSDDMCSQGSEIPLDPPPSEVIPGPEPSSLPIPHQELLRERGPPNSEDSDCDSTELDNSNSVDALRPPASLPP
Description: DLK Kd Determinations (KINOMEscan KdELECT, DiscoveRx). More on the design: full length of human DLK (amino acids 1-859); host or cells: transiently transfected HEK293 cells; unpurified extract. The note with it: fusion protein of full length human DLK (amino acids 1-859) and NFkB DNA binding domain; qPCR readout; duplicate. The gist of the method: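 Competition binding of full-length human DLK (aa 1-859)-NFkB DBD fusion, DNA-tagged, from HEK293 extracts against an immobilized ligand; 1 h at room temperature, 0.9% DMSO. Bead-bound kinase was quantified by qPCR. Kd came from an 11-point 3-fold series (top 30,000 nM), in duplicate, with Hill slope fixed at −1.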
Background: Quantitative PCR measures a nucleic acid by following its amplification.

Assay [2] concerns the target T1, human DLK. Description: Phospho-cJun Cellular Assay. The assay is classed as cell-based. The following applies: HEK293 cells stably transfected with Dox-inducible human DLK; p-cJun (Ser63); 5 h compound incubation. On the set-up: expressed in transfected cells. As for the experimental part: Phospho-cJun Cellular Assay
HEK293 cells stably transfected with a Dox-inducible human DLK were plated into a 384-well plate in 20 μl (40,000 cells/well) of DMEM medium (without phenol red) containing 10% fetal bovine serum, 1.5 μg/ml doxycycline and 1 μg/ml puromycin. The cells as negative control were grown in the absence of doxycycline. The plate was incubated at 37° C., 5% CO2 for 20 h, before DMSO (control) or compounds diluted in medium were added. The cells were incubated at 37° C. for an additional 5 h, followed by lysis and the addition detection antibodies from p-cJun (Ser63) cellular assay kit (Cisbio) per manufacturer protocol. The standard dose response curves were fitted by Genedata Screener software using the variable-slope model: Signal=Signalnegative control+(SignalDMSO control−Signalnegative control)/(1+(IC50/Dose)̂Hill slope). Only signal and dose in the equation were treated as known values.

With `CC(C)Cc1nc(-c2cnc(N)c(OC(F)(F)F)c2)cn1[C@H]1[C@@H]2CC(N3CCN(CCF)CC3)C[C@@H]21` (single isomer, unassigned) [Example 159a, 5-(1-(3-(4-(2-fluoroethyl)piperazin-1-yl)bicyclo[3.1.0]hexan-6-yl)-2-isobutyl-1H-imidazol-4-yl)-3-(trifluoromethoxy)pyridin-2-amine], binding in assay [1] was put at a Kd of 33 nM. This compound also showed an IC50 in assay [2] of 589 nM.
The like results for `Nc1ncc(-c2cn([C@H]3[C@@H]4CC(N5CCCOCC5)C[C@@H]43)c(C3CC3)n2)cc1OC(F)(F)F` (some centres unmarked) [Example 149, 5-(1-(3-(1,4-oxazepan-4-yl)bicyclo[3.1.0]hexan-6-yl)-2-cyclopropyl-1H-imidazol-4-yl)-3-(trifluoromethoxy)pyridin-2-amine] were, in that order, 37 nM and 574 nM.
Taken in the same sequence, the figures for `CC(C)(C)Cc1nc(-c2cnc(N)c(C(F)(F)F)c2)cn1[C@H]1[C@@H]2CN(CCF)C[C@@H]21` [Example 85, 5-(1-((1R,5S,6s)-3-(2-fluoroethyl)-3-azabicyclo[3.1.0]hexan-6-yl)-2-neopentyl-1H-imidazol-4-yl)-3-(trifluoromethyl)pyridin-2-amine] were 60 nM and 594 nM.
Taken in the same sequence, the figures for `CC(C)c1nc(-c2cnc(N)c(OC(F)(F)F)c2)cn1[C@H]1[C@@H]2CC(N3CCCOCC3)C[C@@H]21` (single isomer, unassigned) [Example 20b, 5-(1-(3-(1,4-oxazepan-4-yl)bicyclo[3.1.0]hexan-6-yl)-2-isopropyl-1H-imidazol-4-yl)-3-(trifluoromethoxy)pyridin-2-amine] were 44 nM and 1050 nM.
On to `CC(C)c1nc(-c2cnc(N)c(C(F)(F)F)c2)cn1[C@H]1C[C@H](N2CCOCC2)C1` [Example 42, 5-(2-isopropyl-1-((1r,3r)-3-morpholinocyclobutyl)-1H-imidazol-4-yl)-3-(trifluoromethyl)pyridin-2-amine], for which the Kd in assay [1] worked out at 180 nM. In addition, half-maximal inhibition in assay [2] (IC50) was put at 2230 nM.
The like results for `CC(C)c1nc(-c2cnc(N)c(C(F)(F)F)c2)cn1[C@H]1[C@@H]2CC(N3CCCOCC3)C[C@@H]21` (some centres unmarked) [Example 142, 5-(1-(3-(1,4-oxazepan-4-yl)bicyclo[3.1.0]hexan-6-yl)-2-isopropyl-1H-imidazol-4-yl)-3-(trifluoromethyl)pyridin-2-amine] were, in that order, 9.4 nM and 934 nM.
`Nc1ncc(-c2cn([C@H]3[C@@H]4CC(N5CCOCC5)C[C@@H]43)c(CC3CC3)n2)cc1C(F)(F)F` (single isomer, unassigned) [Example 138a, 5-(2-(cyclopropylmethyl)-1-(3-morpholinobicyclo[3.1.0]hexan-6-yl)-1H-imidazol-4-yl)-3-(trifluoromethyl)pyridin-2-amine]: the Kd in assay [1] was 23 nM. The compound further showed an IC50 in assay [2] of 1010 nM.
With `CN1CCN(C2C[C@@H]3[C@H](C2)[C@H]3n2cc(-c3cnc(N)c(C(F)(F)F)c3)nc2C2CC2)CC1` (single isomer, unassigned) [Example 129b, 5-(2-cyclopropyl-1-(3-(4-methylpiperazin-1-yl)bicyclo[3.1.0]hexan-6-yl)-1H-imidazol-4-yl)-3-(trifluoromethyl)pyridin-2-amine], in assay [1], the Kd turned out to be 16 nM. Moreover, in assay [2], the IC50 turned out to be 633 nM.
In assay [1], `CC(C)Cc1nc(-c2cnc(N)c(C(F)(F)F)c2)cn1[C@H]1[C@@H]2CC(N3CCN(C)CC3)C[C@@H]21` (single isomer, unassigned) [Example 146b, 5-(2-isobutyl-1-(3-(4-methylpiperazin-1-yl)bicyclo[3.1.0]hexan-6-yl)-1H-imidazol-4-yl)-3-(trifluoromethyl)pyridin-2-amine] displayed a Kd of 4.5 nM. For the same compound, it took 346 nM to reach half-maximal inhibition in assay [2] (IC50).
The like results for `Nc1ncc(-c2cn(C3CC4(CC(N5CCOCC5)C4)C3)c(C3CC3)n2)cc1C(F)(F)F` (centres unmarked) [Example 40, 5-(2-cyclopropyl-1-(6-morpholinospiro[3.3]heptan-2-yl)-1H-imidazol-4-yl)-3-(trifluoromethyl)pyridin-2-amine] were, in that order, 42 nM and 587 nM.
`CC(C)Cc1nc(-c2cnc(N)c(C(F)(F)F)c2)cn1[C@H]1[C@@H]2CC(N3CCN(CCF)CC3)C[C@@H]21` (single isomer, unassigned) [Example 160a, 5-(1-(3-(4-(2-fluoroethyl)piperazin-1-yl)bicyclo[3.1.0]hexan-6-yl)-2-isobutyl-1H-imidazol-4-yl)-3-(trifluoromethyl)pyridin-2-amine] registered a Kd in assay [1] of 13 nM. Besides, inhibition in assay [2] was half-maximal at 738 nM (IC50).
Taken in the same sequence, the figures for `C[C@H]1COCCN1C1C[C@@H]2[C@H](C1)[C@H]2n1cc(-c2cnc(N)c(C(F)(F)F)c2)nc1C1CC1` (single isomer, unassigned) [Example 140b] were 37.5 nM and 636 nM.
As for `Nc1ncc(-c2cn([C@H]3[C@@H]4CN(C5CCOCC5)C[C@@H]43)c(C3CC3)n2)cc1OC(F)(F)F` [Example 66, 5-(2-cyclopropyl-1-((1R,5S,6s)-3-(tetrahydro-2H-pyran-4-yl)-3-azabicyclo[3.1.0]hexan-6-yl)-1H-imidazol-4-yl)-3-(trifluoromethoxy)pyridin-2-amine], the Kd in assay [1] stood at 59 nM. In assay [2], this compound showed an IC50 of 827 nM.
Taken in the same sequence, the figures for `COCCN1C[C@@H]2[C@H](C1)[C@H]2n1cc(-c2cnc(N)c(C(F)(F)F)c2)nc1CC1CC1` [Example 78, 5-(2-(cyclopropylmethyl)-1-((1R,5S,6s)-3-(2-methoxyethyl)-3-azabicyclo[3.1.0]hexan-6-yl)-1H-imidazol-4-yl)-3-(trifluoromethyl)pyridin-2-amine] were 64 nM and 781 nM.
In assay [1], `CC(C)c1nc(-c2cnc(N)c(OC(F)(F)F)c2)cn1[C@H]1[C@@H]2CC(N3CCN(CCF)CC3)C[C@@H]21` (single isomer, unassigned) [Example 156a, 5-(1-(3-(4-(2-fluoroethyl)piperazin-1-yl)bicyclo[3.1.0]hexan-6-yl)-2-isopropyl-1H-imidazol-4-yl)-3-(trifluoromethoxy)pyridin-2-amine] showed a Kd of 30 nM. This compound came in with an IC50 in assay [2] of 747 nM.
Turning to `CC(C)c1nc(-c2cnc(N)c(OC(F)F)c2)cn1[C@H]1[C@@H]2CN(C3COC3)C[C@@H]21` [Example 83, 3-(difluoromethoxy)-5-(2-isopropyl-1-((1R,5S,6s)-3-(oxetan-3-yl)-3-azabicyclo[3.1.0]hexan-6-yl)-1H-imidazol-4-yl)pyridin-2-amine], in assay [1], the Kd was 160 nM. In addition, the IC50 in assay [2] was 3550 nM.
The like results for `Nc1ncc(-c2cn([C@H]3[C@@H]4CC(N5CCOCC5)C[C@@H]43)c(C3CC3)n2)cc1OC(F)(F)F` (single isomer, unassigned) [Example 139a, 5-(2-cyclopropyl-1-(3-morpholinobicyclo[3.1.0]hexan-6-yl)-1H-imidazol-4-yl)-3-(trifluoromethoxy)pyridin-2-amine] were, in that order, 37 nM and 544 nM.
`CCC(O)c1nc(-c2cnc(N)c(C(F)(F)F)c2)cn1C1CCC1` (centres unmarked) [Example 22, 1-(4-(6-amino-5-(trifluoromethyl)pyridin-3-yl)-1-cyclobutyl-1H-imidazol-2-yl)propan-1-ol] displayed a Kd in assay [1] of 18 nM. In assay [2], the midpoint of inhibition, the IC50, lay at 550 nM.
Taken in the same sequence, the figures for `COCCN1C[C@@H]2[C@H](C1)[C@H]2n1cc(-c2cnc(N)c(OC(F)F)c2)nc1CC1CC1` [Example 117, 5-(2-(cyclopropylmethyl)-1-((1R,5S,6s)-3-(2-methoxyethyl)-3-azabicyclo[3.1.0]hexan-6-yl)-1H-imidazol-4-yl)-3-(difluoromethoxy)pyridin-2-amine] were 48 nM and 987 nM.
